Laboratory results taken from patent publication US12540131B2 (Merck Sharp & Dohme LLC, priority 2019, dated 2026).

The compounds below were run against GST tagged truncated human mutant G2019S LRRK2 (Homo sapiens (Human), UniProt Q5S007, G2019S) (assay: LRRK2 Km ATP LanthaScreen Assay). Settings: G2019S LRRK2, 134 μM ATP (Km ATP), mean values.
Type: biochemical
Outline: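 Enzyme (GST-tagged, truncated) was preincubated with compound for 15 min at RT in 50 mM Tris pH 8.5, 10 mM MgCl2, 0.01% Brij-35, 1 mM EGTA, 2 mM DTT and 0.05 mM orthovanadate. Fluorescein-LRRKtide and 134 μM ATP (Km) were then added for 90 min. EDTA and Tb-anti-pERM antibody stopped the reaction; the TR-FRET 520/495 ratio gave 4-parameter IC50s, reported as mean pIC50.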

Sequence of GST tagged truncated human mutant G2019S LRRK2 (Q5S007 970-2527 G2019S): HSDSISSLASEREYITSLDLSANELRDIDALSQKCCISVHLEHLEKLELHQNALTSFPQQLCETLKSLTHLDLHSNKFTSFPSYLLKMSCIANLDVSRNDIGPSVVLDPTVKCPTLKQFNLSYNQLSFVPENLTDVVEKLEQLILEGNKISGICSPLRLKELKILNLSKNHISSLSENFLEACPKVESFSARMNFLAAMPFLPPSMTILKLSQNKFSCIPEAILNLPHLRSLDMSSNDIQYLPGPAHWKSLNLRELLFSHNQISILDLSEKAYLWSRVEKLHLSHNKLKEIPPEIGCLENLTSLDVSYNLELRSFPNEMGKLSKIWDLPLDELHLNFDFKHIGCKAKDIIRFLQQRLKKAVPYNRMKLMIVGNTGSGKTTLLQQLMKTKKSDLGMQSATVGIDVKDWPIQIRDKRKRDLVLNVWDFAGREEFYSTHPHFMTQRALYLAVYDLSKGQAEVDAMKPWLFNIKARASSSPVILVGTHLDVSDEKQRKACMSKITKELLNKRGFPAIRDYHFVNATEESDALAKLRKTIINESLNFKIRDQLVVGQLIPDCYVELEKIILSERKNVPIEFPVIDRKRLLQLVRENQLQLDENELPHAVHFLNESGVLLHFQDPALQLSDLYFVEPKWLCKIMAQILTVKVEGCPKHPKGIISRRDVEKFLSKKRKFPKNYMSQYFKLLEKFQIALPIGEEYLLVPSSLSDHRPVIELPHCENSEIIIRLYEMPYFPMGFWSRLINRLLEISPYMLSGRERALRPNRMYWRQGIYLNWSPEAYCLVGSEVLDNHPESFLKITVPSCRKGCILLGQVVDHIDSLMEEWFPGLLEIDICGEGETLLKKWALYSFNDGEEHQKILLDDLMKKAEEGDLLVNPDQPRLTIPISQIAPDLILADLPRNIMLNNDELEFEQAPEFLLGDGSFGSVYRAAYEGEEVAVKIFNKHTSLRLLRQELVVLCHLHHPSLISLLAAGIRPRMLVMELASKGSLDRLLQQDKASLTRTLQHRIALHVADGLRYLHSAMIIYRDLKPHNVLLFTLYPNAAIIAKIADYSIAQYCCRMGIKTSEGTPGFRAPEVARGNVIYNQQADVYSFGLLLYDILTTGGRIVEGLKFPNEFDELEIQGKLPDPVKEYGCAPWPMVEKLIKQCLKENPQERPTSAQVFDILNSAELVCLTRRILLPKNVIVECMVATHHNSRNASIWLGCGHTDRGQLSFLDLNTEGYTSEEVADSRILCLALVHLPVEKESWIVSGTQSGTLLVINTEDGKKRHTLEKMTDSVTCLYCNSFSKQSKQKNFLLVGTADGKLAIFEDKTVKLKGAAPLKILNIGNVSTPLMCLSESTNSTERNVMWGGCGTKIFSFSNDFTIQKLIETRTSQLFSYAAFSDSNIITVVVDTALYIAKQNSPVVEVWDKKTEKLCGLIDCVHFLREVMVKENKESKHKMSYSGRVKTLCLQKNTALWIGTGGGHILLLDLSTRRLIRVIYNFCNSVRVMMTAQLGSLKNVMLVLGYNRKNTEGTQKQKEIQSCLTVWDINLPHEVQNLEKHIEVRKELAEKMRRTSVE

Structure (SMILES)	LRRK2 pIC50
Clc1cc2cnc(Nc3cnn(C4CC4)c3Cl)nc2cc1C1CCN(C2COC(C3CC3)C2)CC1 (single isomer, unassigned) [Ex-4.167, (3R,5R) or (3S,5R) or (3R,5S) or (3S,5S) 6-chloro-N-(5-chloro-1-cyclopropyl-1H-pyrazol-4-yl)-7-[1-(5-cyclopropyloxolan-3-yl)piperidin-4-yl]quinazolin-2-amine]	8.14
CC(n1ncc(Nc2ncc3cc(Cl)c([C@H]4CCN(C)C[C@@H]4F)cc3n2)c1Cl)C(C)(C)O (single isomer, unassigned) [Ex-4.68, (R)(3S,4S) or (R)(3R,4R) or (S)(3S,4S) or (S)(3R,4R) 3-(5-chloro-4-{[6-chloro-7-(3-fluoro-1-methylpiperidin-4-yl)quinazolin-2-yl]amino}-1H-pyrazol-1-yl)-2-methylbutan-2-ol]	8.92
Clc1cc2cnc(Nc3cnn(C4CC4)c3Cl)nc2cc1C1CCN(C2COC2)CC1 [Ex-8.8, 6-chloro-N-(5-chloro-1-cyclopropyl-1H-pyrazol-4-yl)-7-[1-(oxetan-3-yl)piperidin-4-yl]quinazolin-2-amine]	>9.20
N#CCCN1CCC(c2cc3nc(Nc4cnn(CC(F)F)c4Cl)ncc3cc2Cl)CC1 [Ex-4.95, 3-[4-(6-chloro-2-{[5-chloro-1-(2,2-difluoroethyl)-1H-pyrazol-4-yl]amino}quinazolin-7-yl)piperidin-1-yl]propanenitrile]	>9.20
F[C@H]1CN(C2COC2)CC[C@@H]1c1cc2nc(Nc3cnn(C4CC4(F)F)c3Cl)ncc2cc1Cl (single isomer, unassigned) [Ex-8.31, (R)(3S,4S) or (S)(3S,4S) or (R)(3R,4R) or (S)(3R,4R) 6-chloro-N-[5-chloro-1-(2,2-difluorocyclopropyl)-1H-pyrazol-4-yl]-7-[3-fluoro-1-(oxetan-3-yl)piperidin-4-yl]quinazolin-2-amine]	>9.20
Cc1cc2cnc(Nc3cc(C(C)(C)C)nn3C)nc2cc1C1CCN([C@]2(C)COC[C@@H]2O)CC1 (single isomer, unassigned) [Ex-5.14, (3S,4S) or (3R,4R) 4-(4-{2-[(3-tert-butyl-1-methyl-1H-pyrazol-5-yl)amino]-6-methylquinazolin-7-yl}piperidin-1-yl)-4-methyloxolan-3-ol]	9.02
Cc1cc2cnc(Nc3cnn(C4CC4(F)F)c3C)nc2cc1[C@@H]1CCN([C@H]2COC[C@H]2O)C[C@H]1F (single isomer, unassigned) [Ex-4.143, (R)(3S,4S)(3S,4S) or (R)(3S,4S)(3R,4R) or (R)(3R,4R)(3S,4S) or (R)(3R,4R)(3R,4R) or (S)(3S,4S)(3S,4S) or (S)(3S,4S)(3R,4R) or (S)(3R,4R)(3S,4S) or (S)(3R,4R)(3R,4R) 4-[4-(2-{[1-(2,2-difluorocyclopropyl)-5-methyl-1H-pyrazol-4-yl]amino}-6-methylquinazolin-7-yl)-3-fluoropiperidin-1-yl]oxolan-3-ol]	>9.20
Cn1nc(C2CC2)cc1Nc1ncc2cc(Cl)c(C3CCN(C4COC4)CC3)cc2n1 [Ex-2.62, 6-chloro-N-(3-cyclopropyl-1-methyl-1H-pyrazol-5-yl)-7-[1-(oxetan-3-yl)piperidin-4-yl]quinazolin-2-amine]	7.88
Cc1cc2cnc(Nc3cnn(C45CC(C4)C5)c3Cl)nc2cc1[C@H]1CCN([C@@H]2COC[C@@H]2O)C[C@@H]1F (single isomer, unassigned) [Ex-8.35, (3S,4S)(3S,4S) or (3S,4S)(3R,4R) or (3R,4R)(3S,4S) or (3R,4R)(3R,4R) 4-[4-(2-{[1-(bicyclo[1.1.1]pentan-1-yl)-5-chloro-1H-pyrazol-4-yl]amino}-6-methylquinazolin-7-yl)-3-fluoropiperidin-1-yl]oxolan-3-ol]	8.68
Clc1cc2cnc(Nc3cnn(C4COC4)c3Cl)nc2cc1C1CCN(C2COC2)CC1 [Ex-4.17, 6-chloro-N-[5-chloro-1-(oxetan-3-yl)-1H-pyrazol-4-yl]-7-[1-(oxetan-3-yl)piperidin-4-yl]quinazolin-2-amine]	>9.20
Cc1c(Nc2ncc3cc(Cl)c(C4CCN(C5COC5)CC4)cc3n2)cnn1C(C)(C)C#N [Ex-2.19, 2-[4-({6-chloro-7-[1-(oxetan-3-yl)piperidin-4-yl]quinazolin-2-yl}amino)-5-methyl-1H-pyrazol-1-yl]-2-methylpropanenitrile]	>9.20
Cc1c(Nc2ncc3cc(Cl)c(C4CCN(C5COC5)CC4)cc3n2)cnn1CC1(C#N)CC1 [Ex-2.15, 1-{[4-({6-chloro-7-[1-(oxetan-3-yl)piperidin-4-yl]quinazolin-2-yl}amino)-5-methyl-1H-pyrazol-1-yl]methyl}cyclopropane-1-carbonitrile]	>9.20
Cc1c(Nc2ncc3cc(Cl)c(C4CCN(C[C@H](O)c5ccc(F)cc5)CC4)cc3n2)cnn1C1CC1 [Ex-4.213, (1R)-2-(4-{6-chloro-2-[(1-cyclopropyl-5-methyl-1H-pyrazol-4-yl)amino]quinazolin-7-yl}piperidin-1-yl)-1-(4-fluorophenyl)ethan-1-ol]	8.50
Cc1c(Nc2ncc3cc(Cl)c(C4CCN(C5CC[C@@H]6C[C@H]56)CC4)cc3n2)cnn1C1CC1 (stereo partly drawn) [Ex-4.172, 7-{1-[(1S,5R)-bicyclo[3.1.0]hexan-2-yl]piperidin-4-yl}-6-chloro-N-(1-cyclopropyl-5-methyl-1H-pyrazol-4-yl)quinazolin-2-amine]	7.53
Cc1c(Nc2ncc3cc(Cl)c(C4CCN(C5(C)COC5)CC4)cc3n2)cnn1C12CC(C1)C2 [Ex-2.22, N-[1-(bicyclo[1.1.1]pentan-1-yl)-5-methyl-1H-pyrazol-4-yl]-6-chloro-7-[1-(3-methyloxetan-3-yl)piperidin-4-yl]quinazolin-2-amine]	>9.20

Same assay, conditions: G2019S LRRK2, 134 μM ATP (Km ATP), mean values; read-out: LRRK2 pIC50 (converted)

Structure (SMILES)	IC50 [nM]
CC1(C)CC(N2CCC(c3cc4nc(Nc5cnn(C6CC6)c5Cl)ncc4cc3Cl)CC2)CO1 (single isomer, unassigned) [Ex-4.117, (R) or (S) 6-chloro-N-(5-chloro-1-cyclopropyl-1H-pyrazol-4-yl)-7-(1-(5,5-dimethyltetrahydrofuran-3-yl)piperidin-4-yl)quinazolin-2-amine]	< 0.631
Cc1c(Nc2ncc3cc(Cl)c(C4CCN(C5CCCC5(F)F)CC4)cc3n2)cnn1C1CC1 (single isomer, unassigned) [Ex-1.22, (S) or (R) 6-chloro-N-(1-cyclopropyl-5-methyl-1H-pyrazol-4-yl)-7-[1-(2,2-difluorocyclopentyl)piperidin-4-yl]quinazolin-2-amine]	7.94
Cc1c(Nc2ncc3cc(Cl)c(C4CCN(CC(O)CN5CCOCC5)CC4)cc3n2)cnn1C1CC1 (single isomer, unassigned) [Ex-4.227, (S) or (R) 1-(4-{6-chloro-2-[(1-cyclopropyl-5-methyl-1H-pyrazol-4-yl)amino]quinazolin-7-yl}piperidin-1-yl)-3-(morpholin-4-yl)propan-2-ol]	< 0.631
COCC12CC(n3ncc(Nc4ncc5cc(Cl)c(C6CCN(C7(C)COC7)CC6)cc5n4)c3C)(C1)C2 [Ex-2.32, 6-chloro-N-{1-[3-(methoxymethyl)bicyclo[1.1.1]pentan-1-yl]-5-methyl-1H-pyrazol-4-yl}-7-[1-(3-methyloxetan-3-yl)piperidin-4-yl] quinazolin-2-amine]	< 0.631
